# Results reported in patent US20210283107A1, “Methods to Expand the Spectrum of Gram-Positive Antibiotics” (NORTH CAROLINA STATE UNIVERSITY, priority 2016, published 2021).
# “And” between values parts separate entries of the source, which are not always exact repeats. Equal values may be shown once. Read-outs that look alike come from different tables or passages of the source.
# How the values were obtained:
# [1] = test system: A. baumannii strain 5075 (AB5075); test: Macrolide sensitization / antibiotic resensitization: antibiotic MIC in presence of compound (broth microdilution); assay type: cell-based, Acinetobacter baumannii; conditions: for MIC: Acinetobacter baumannii; for potentiation of vancomycin: compound at 10 μM; for reduction in vancomycin MIC (fold): compound at 20 μM; for Josamycin MIC / Oleandomycin MIC / Spiramycin MIC / Troleandomycin MIC: in presence of compound (concentration not given in Table 7); for Amikacin MIC / Gentamicin MIC / Kanamycin MIC / Neomycin MIC / Streptomycin MIC / Tobramycin MIC: in presence of compound (concentration not given in Table 12); for Fold reduction of josamycin MIC: in the presence of compound (concentration not given)
# How it was run: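 A. baumannii AB5075 at 5×10^5 CFU/mL in CAMHB held a fixed compound level while antibiotic was serially diluted. After 16-18 h static at 37° C, MIC was the lowest antibiotic concentration without visible growth. Fold-reduction is relative to antibiotic alone, from duplicates repeated at least twice.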
# AB 5075 = test: Backlight assay for membrane permeability; assay type: cell-based, Acinetobacter baumannii; conditions: AB5075
# Experimental: The assay was initially performed at 10, 20 and 30 μM with compounds 1 and 4 (Table 16). […] When the concentration is lowered to 20 μM, the percent of membrane disrupted also decreases to 78% and 83% respectively. When further decreasing the concentration to 10 μM, the membrane disruption decreases to 39 and 44% respectively. Due to the similar structure and lack of potentiation activity, compound 25 was screened at 10, 20 and 30 μM to compare membrane permeability with that of active compounds. The percent disruption was less than seen with compounds 1 and 4 being 53, 54 and 60% respectively.
# [2] = test system: A. baumannii mutant AB522; test: MIC against Tn-seq transposon mutant AB522; assay type: cell-based; conditions: Acinetobacter baumannii
# Experimental: (§1) During individual MIC screening, two mutants, AB522 and AB1310, were identified due to their increased sensitivity to the three macrolide antibiotics and vancomycin when compared to AB 5075 (Table 17).
# (§2) Day Cultures (6 h) were subcultured to 5×10^5 CFU/mL in cation adjusted Mueller-Hinton broth (CAMHB). Aliquots (1 mL) were placed in culture tubes, and compound was added from 100 mM stock solutions, such that the compound concentration equaled the highest concentration tested (200 μM or 64 μg/mL). Samples were then aliquoted (200 μL) into the first row of wells of a 96-well plate, with all remaining wells being filled with 100 μL of initial bacterial subculture. The wells in row one were mixed five times before 100 μL was transferred to the following row (row two). Row two was then mixed five times, and 100 μL was transferred to row three. This processed was repeated until the final row had been mixed. This process provided a serial dilution of the compound. Plates were covered with Glad Press n'Seal and were incubated under stationary conditions at 37° C. for 16 hours. MIC values were recorded as the lowest concentration at which no bacterial growth was observed.
# [3] = test system: A. baumannii mutant AB1310; test: MIC against Tn-seq transposon mutant AB1310; assay type: cell-based; conditions: Acinetobacter baumannii
# Experimental: as §1, §2
# [4] = test system: A. baumannii mutant AB1310; test: Dose dependent resistance suppression (antibiotic MIC with compound) in AB1310; assay type: cell-based, Acinetobacter baumannii
# Experimental: There was no notable reduction in antibiotic MIC observed with either compound and both strains 522 and 1310. […] Even at the highest concentration, no potentiation was observed.
# Day Cultures (6 h) were subcultured to 5×10^5 CFU/mL in cation adjusted Mueller-Hinton broth (CAMHB). […] One milliliter of the resulting solution was aliquoted into a separate culture tube and was dosed with antibiotic so that the resulting concentration was the highest desirable concentration to be tested. Bacteria treated with antibiotic alone were used as a control. Row one of a 96-well plate was filled with 200 μL of the antibiotic/compound solution, and the remaining rows were filled with 100 μL of the remaining 4 mL bacterial subculture. The wells in row one were mixed five times before 100 μL was transferred to the following row (row two). Row two was then mixed five times, and 100 μL was transferred to row three. This process was repeated until the second to last row had been reached. The last row is left unexposed to antibiotic in order to serve as a negative control. The antibiotic only treated bacteria was plated by aliquoting 200 μL of the treated bacteria into row one and filling the remaining rows with untreated bacteria from the original bacteria subculture. The rows were mixed in the same way as described above. Plates were covered with Glad Press n'Seal and were incubated under stationary conditions at 37° C. for 16 hours. MIC values were recorded as the lowest concentration at which no bacterial growth was observed. Fold reductions were determined by comparison of the compound treated wells with the antibiotic only treated control wells.
# [5] = compound at 10 μM vs colistin alone, AB5075
# [6] = compound at 30 μM vs antibiotic alone, AB5075
# [7] = in presence of compound at 4 μM, AB5075
# [8] = in presence of compound at 5 μM, AB5075
# [9] = in presence of compound at 10 μM, AB5075
# [10] = in presence of compound at 15 μM, AB5075
# [11] = in presence of compound at 20 μM, AB5075
# [12] = in presence of compound at 30 μM, AB5075
smiles,measurement,setting,value
Nc1nc(-c2ccc(NC(=O)c3cc(Cl)cc(Cl)c3)cc2)c[nH]1 [Compound 1],MIC,[1]; read-out: Daptomycm MIC (μg/mL),16 µg/mL
same,Fold Increase (colistin MIC),[1]; [5],8 fold
same,potentiation of vancomycin,[1]; AB5075,no potentiation activity observed
same,reduction in vancomycin MIC (fold),[1]; AB5075,32 fold
same,Fold Reduction (daptomycin MIC),[1]; [6],128 fold
same,Fold Reduction (vancomycin MIC),[1]; [6],256 fold
same,Fold Increase (colistin MIC),"[1]; compound at 30 μM vs colistin alone, AB5075",32 fold
same,Josamycin MIC,[1]; AB5075,8 µg/mL
same,Oleandomycin MIC,[1]; AB5075,64 µg/mL
same,Spiramycin MIC,[1]; AB5075,128 µg/mL
same,Troleandomycin MIC,[1]; AB5075,32 µg/mL
same,Amikacin MIC,[1]; AB5075,128 µg/mL
same,Gentamicin MIC,[1]; AB5075,>512 µg/mL
same,Kanamycin MIC,[1]; AB5075,>512 µg/mL
same,Neomycin MIC,[1]; AB5075,16 µg/mL
same,Streptomycin MIC,[1]; AB5075,256 µg/mL
same,Tobramycin MIC,[1]; AB5075,64 µg/mL
same,Azithromycin MIC,[1]; [7],32 µg/mL
same,Vancomycin MIC,[1]; [7],256 µg/mL
same,Azithromycin MIC,[1]; [8],32 µg/mL
same,Vancomycin MIC,[1]; [8],256 µg/mL
same,Azithromycin MIC,[1]; [9],16 µg/mL
same,Vancomycin MIC,[1]; [9],256 µg/mL
same,Azithromycin MIC,[1]; [10],16 µg/mL
same,Vancomycin MIC,[1]; [10],64 µg/mL
same,Azithromycin MIC,[1]; [11],16 µg/mL
same,Vancomycin MIC,[1]; [11],8 µg/mL
same,Azithromycin MIC,[1]; [12],8 µg/mL
same,Colistin MIC,[1]; [12],16 µg/mL
same,Linezolid MIC,[1]; [12],128 µg/mL
same,Vancomycin MIC,[1]; [12],1 µg/mL
same,Fold reduction of josamycin MIC,[1]; AB5075,16 fold
same,Disrupted bacterial membrane (%),AB 5075; compound at 10 μM,39% and 38.8%
same,Disrupted bacterial membrane (%),AB 5075; compound at 20 μM,78%
same,MIC,[2],12.5 µM
same,MIC,[3],12.5 µM
same,Azithromycin MIC,[4]; compound Conc. Tested 2 (μM),4 µg/mL
same,Clarithromycin MIC,[4]; compound Conc. Tested 2 (μM),1 µg/mL
same,Erythromycin MIC,[4]; compound Conc. Tested 2 (μM),4 µg/mL
same,Vancomycin MIC,[4]; compound Conc. Tested 2 (μM),64 µg/mL
same,Azithromycin MIC,[4]; compound Conc. Tested 3 (μM),4 µg/mL
same,Clarithromycin MIC,[4]; compound Conc. Tested 3 (μM),1 µg/mL
same,Erythromycin MIC,[4]; compound Conc. Tested 3 (μM),2 µg/mL
same,Vancomycin MIC,[4]; compound Conc. Tested 3 (μM),64 µg/mL
same,Azithromycin MIC,[4]; compound Conc. Tested 4 (μM),4 µg/mL
same,Clarithromycin MIC,[4]; compound Conc. Tested 4 (μM),0.5 µg/mL
same,Erythromycin MIC,[4]; compound Conc. Tested 4 (μM),4 µg/mL
same,Vancomycin MIC,[4]; compound Conc. Tested 4 (μM),64 µg/mL
same,Azithromycin MIC,[4]; compound Conc. Tested 5 (μM),4 µg/mL
same,Clarithromycin MIC,[4]; compound Conc. Tested 5 (μM),0.5 µg/mL
same,Erythromycin MIC,[4]; compound Conc. Tested 5 (μM),2 µg/mL
same,Vancomycin MIC,[4]; compound Conc. Tested 5 (μM),32 µg/mL
Nc1nc(-c2ccc(NC(=O)c3cc(Br)cc(Br)c3)cc2)c[nH]1 [Compound 4],MIC,"[1]; in presence of compound at 30 μM, AB5075, read-out: Daptomycm MIC",64 µg/mL
same,Fold Increase (colistin MIC),[1]; [5],0 fold
same,potentiation of vancomycin,[1]; AB5075,no potentiation activity observed
same,reduction in vancomycin MIC (fold),[1]; AB5075,64 fold
same,Fold Reduction (daptomycin MIC),[1]; [6],32 fold
same,Fold Reduction (vancomycin MIC),[1]; [6],256 fold
same,Fold reduction (clarithromycin MIC),[1]; [6],128 fold
same,Josamycin MIC,[1]; AB5075,4 µg/mL
same,Oleandomycin MIC,[1]; AB5075,128 µg/mL
same,Spiramycin MIC,[1]; AB5075,64 µg/mL
same,Troleandomycin MIC,[1]; AB5075,16 µg/mL
same,Amikacin MIC,[1]; AB5075,128 µg/mL
same,Gentamicin MIC,[1]; AB5075,>512 µg/mL
same,Kanamycin MIC,[1]; AB5075,>512 µg/mL
same,Neomycin MIC,[1]; AB5075,64 µg/mL
same,Streptomycin MIC,[1]; AB5075,512 µg/mL
same,Tobramycin MIC,[1]; AB5075,64 µg/mL
same,Azithromycin MIC,[1]; [7],64 µg/mL
same,Vancomycin MIC,[1]; [7],128 µg/mL
same,Azithromycin MIC,[1]; [8],64 µg/mL
same,Vancomycin MIC,[1]; [8],256 µg/mL
same,Azithromycin MIC,[1]; [9],32 µg/mL
same,Colistin MIC,[1]; [9],0.5 µg/mL
same,Vancomycin MIC,[1]; [9],128 µg/mL
same,Azithromycin MIC,[1]; [10],8 µg/mL
same,Vancomycin MIC,[1]; [10],32 µg/mL
same,Azithromycin MIC,[1]; [11],16 µg/mL
same,Vancomycin MIC,[1]; [11],4 µg/mL
same,Azithromycin MIC,[1]; [12],8 µg/mL
same,Colistin MIC,[1]; [12],4 µg/mL
same,Linezolid MIC,[1]; [12],256 µg/mL
same,Vancomycin MIC,[1]; [12],1 µg/mL
same,Fold reduction of josamycin MIC,[1]; AB5075,32 fold
same,Disrupted bacterial membrane (%),AB 5075; compound at 10 μM,44%
same,Disrupted bacterial membrane (%),AB 5075; compound at 20 μM,83% and 83.2%
same,Disrupted bacterial membrane (%),AB 5075; compound at 30 μM,87.4%
same,MIC,[2],12.5 µM
same,MIC,[3],12.5 µM
same,Azithromycin MIC,[4]; compound Conc. Tested 2 (μM),4 µg/mL
same,Clarithromycin MIC,[4]; compound Conc. Tested 2 (μM),2 µg/mL
same,Erythromycin MIC,[4]; compound Conc. Tested 2 (μM),4 µg/mL
same,Vancomycin MIC,[4]; compound Conc. Tested 2 (μM),64 µg/mL
same,Azithromycin MIC,[4]; compound Conc. Tested 3 (μM),4 µg/mL
same,Clarithromycin MIC,[4]; compound Conc. Tested 3 (μM),1 µg/mL
same,Erythromycin MIC,[4]; compound Conc. Tested 3 (μM),2 µg/mL
same,Vancomycin MIC,[4]; compound Conc. Tested 3 (μM),32 µg/mL
same,Azithromycin MIC,[4]; compound Conc. Tested 4 (μM),4 µg/mL
same,Clarithromycin MIC,[4]; compound Conc. Tested 4 (μM),1 µg/mL
same,Erythromycin MIC,[4]; compound Conc. Tested 4 (μM),2 µg/mL
same,Vancomycin MIC,[4]; compound Conc. Tested 4 (μM),32 µg/mL
same,Azithromycin MIC,[4]; compound Conc. Tested 5 (μM),4 µg/mL
same,Clarithromycin MIC,[4]; compound Conc. Tested 5 (μM),0.5 µg/mL
same,Erythromycin MIC,[4]; compound Conc. Tested 5 (μM),2 µg/mL
same,Vancomycin MIC,[4]; compound Conc. Tested 5 (μM),32 µg/mL
